# Test results from patent US7279465B2, “Use of amphiphilic nucleoside phosphonoformic acid derivatives for the treatment of viral infectious diseases” (Eberhard-Karls-Universitaet, priority 2002, dated 2007).
# Values joined by “and” are separate entries in the source; they are usually repeats but may differ in a detail not shown here. Identical values can stand only once. Like-named read-outs stand apart in the source and are kept apart here.
# Assays:
# [1] = tested on: multiresistant HCMV strain (GCV/PFA/CDV-resistant); test: Modified cell-adapted plaque reduction assay (HFF cocultures), multiresistant HCMV strain; assay type: cell-based, human cytomegalovirus (HCMV); settings: for average plaque numbers: 1500 HCMV-infected HFF cells/microculture, multiresistant strain
# From the text: (§1) Cocultures of infected and uninfected human foreskin fibroblasts (HFFs) were used for this purpose.
# (§2) The implementation of the assay was described for the first time in Prix, et al., “A simplified assay for screening of drug resistance of cell-associated cytomegalovirus strains,” Journal of Clinical Virology (1998) 11:29-37, and Prix, et al., “Comprehensive restriction analysis of the UL97 region allows early detection of ganciclovir-resistant human cytomegalovirus in an immunocompromised child,” Journal of Infectious Diseases (1999) 180:491-495, and is briefly described below.
# (§3) HCMV primary isolates on HFF cells in tube culture were passaged on subconfluent monolayers of HFF grown in small cell culture flasks (25 cm^2), and cultured. When an approx. 20-40% cytopathic effect (CPE) had been reached, the cells were washed with phosphate-buffered saline (PBS) and the monolayer was removed by trypsinization. After the trypsin had been inactivated, the pellet was taken up in Eagle's minimal essential medium (MEM)-10% FCS (foetal calf serum) and subjected to mild filtration for the purpose of separating off cell aggregates.
# (§4) In parallel, uninfected HFF cells were cultured on 175 cm^2 dishes, washed, trypsinized and, after further purification steps, taken up in MEM-10% FCS.
# […] In each case 100 μl of each of these dilution steps were pipetted in triplicate into a 96-well microtitre plate. In order to ensure that the cells adhered to the microtitre plate bottom, the cocultures were incubated for at least 4 h before the medium was carefully removed. […]
# The primary antibody (anti-IE1-pp72, E13 clone, Paesel & Lorei, Germany), which is directed against the HCMV immediate early antigen (UL123) of HCMV, was then added. […] After the peroxidase/H2O2 substrate had been added, the HCMV immediate early antigen was detected, under a microscope, in the nuclei of the infected fibroblasts as a result of the in situ brown staining. […]
# [2] = tested on: GCV-resistant/PFA-sensitive HCMV strain; test: microbe, parasite or virus in culture; assay type: cell-based, human cytomegalovirus (HCMV); settings: for average plaque numbers/microculture: GCV-resistant, PFA/CDV-sensitive strain
# From the text: as §1, §2, §3, §4
# In order to prepare cocultures, the infected cells were mixed with the uninfected cells in the following manner: 2.5×10^4 uninfected cells/100 μl were mixed, in two different ratios, with 500 and 1000 infected cells/100 μl. In each case 100 μl of each of these dilution steps were pipetted in triplicate into a 96-well microtitre plate. In order to ensure that the cells adhered to the microtitre plate bottom, the cocultures were incubated for at least 4 h before the medium was carefully removed.
# The cultures were then incubated for 4 days so as to enable the viruses from the infected single cells to spread in the form of plaque formation by infecting the neighbouring cells.
# Following the 4-day incubation, the medium was carefully poured off and the microcultures were permeabilized, and fixed, with 200 μl of ice-cold (−20° C.) methanol. After 20 min, the methanol was removed and the cells were washed twice with PBS.
# The primary antibody (anti-IE1-pp72, E13 clone, Paesel & Lorei, Germany), which is directed against the HCMV immediate early antigen (UL123) of HCMV, was then added. […] After the peroxidase/H2O2 substrate had been added, the HCMV immediate early antigen was detected, under a microscope, in the nuclei of the infected fibroblasts as a result of the in situ brown staining.
# 6.25 μM of the structurally identical, ethyl-esterified compound N4 were also included.
# In this experiment, 500 HCMV-infected HFF cells/microculture were used.
# For correctly evaluating the plates, the norm was applied that a plaque had to consist of a group of cells containing at least 10 individual cells in order to be included in the count.
# [3] = tested on: human prepuce fibroblasts; test: Cytotoxic effect in vitro towards fibroblasts; assay type: cell-based
# Procedure: Since N3 was determined to have a cytotoxic effect in vitro towards human prepuce fibroblasts only at concentrations of >125 μM, adequate therapeutic breadth for in vivo use consequently also exists.
# HCMV = test: Preliminary screening of antiviral effect in vitro; assay type: cell-based, human cytomegalovirus (HCMV); settings: compared with unesterified compound
molecule,measurement,setting,value
"3′-azido-2′,3′-dideoxythymidylyl-(5′→2)-1-O-octadecyl-rac-glycerol-3-(hydroxycarbonyl)-phosphonate [N3]",average plaque numbers,[1]; N3 (6.25 μM recorded),2.3
same,average plaque numbers/microculture,"[2]; 6.25 μM N3, 500 HCMV-infected HFF cells/microculture",5.7 and 7.5
same,ID50 lower than that for GCV (fold),"[2]; GCV-resistant strain, 1000 infected cells/microculture",approx. 11 ×
same,antiviral activity higher than that of PFA (fold),"[2]; GCV-resistant/PFA-sensitive strain, 1000 infected HFF cells/microculture",approx. 40 ×
same,concentration with cytotoxic effect in vitro,[3],> 125 µM
"Nc1nc2c(ncn2COC(CO)CO)c(=O)[nH]1 [GCV, 9-[1,3-dihydroxy-2-propoxymethyl]guanine, reference compound]",average plaque numbers/microculture,"[2]; 5 μM GCV, 500 HCMV-infected HFF cells/microculture",19.5
same,IC50,"[2]; Human betaherpesvirus 5, Table 1, GCVres/PFAsens/CDVsens strain, Niz = 1000 infected cells/microculture, read-out: ID50 (95% CI)",14.3 µM
"O=C(O)P(=O)(O)O.[Na] [PFA, sodium-phosphonoformic acid, reference compound]",average plaque numbers,[1]; PFA (300 μM recorded),20.5
same,number of plaques,"[2]; 300 μM PFA, 500 HCMV-infected HFF cells/microculture, negative control 37.9",5
same,IC50,"[2]; Human betaherpesvirus 5, read-out: ID50 (95% CI)",64.8 µM
"ethyl 3′-azido-2′,3′-dideoxythymidylyl-(5′→2)-1-O-octadecyl-rac-glycerol-3-(hydroxycarbonyl)-phosphonate [N4]",antiviral activity against multiresistant strains,[1]; multiresistant strains,did not exhibit any antiviral activity
same,antiviral effect in vitro,HCMV,markedly reduced antiviral effect
